# Assay results reported in ChEMBL document CHEMBL1140791, “Design and identification of selective HER-2 sheddase inhibitors via P1' manipulation and unconventional P2' perturbations to induce a molecular metamorphosis” (Bioorg Med Chem Lett, 2008).
# Activity calls are given as the source filed them. The calls are words filed in the database; no cut-off is given here.
# Key:
# [1] = target: T1, Disintegrin and metalloproteinase domain-containing protein 10 (Homo sapiens, UniProt O14672); assay: Binding affinity to ADAM10
# T1 sequence (O14672 whole entry): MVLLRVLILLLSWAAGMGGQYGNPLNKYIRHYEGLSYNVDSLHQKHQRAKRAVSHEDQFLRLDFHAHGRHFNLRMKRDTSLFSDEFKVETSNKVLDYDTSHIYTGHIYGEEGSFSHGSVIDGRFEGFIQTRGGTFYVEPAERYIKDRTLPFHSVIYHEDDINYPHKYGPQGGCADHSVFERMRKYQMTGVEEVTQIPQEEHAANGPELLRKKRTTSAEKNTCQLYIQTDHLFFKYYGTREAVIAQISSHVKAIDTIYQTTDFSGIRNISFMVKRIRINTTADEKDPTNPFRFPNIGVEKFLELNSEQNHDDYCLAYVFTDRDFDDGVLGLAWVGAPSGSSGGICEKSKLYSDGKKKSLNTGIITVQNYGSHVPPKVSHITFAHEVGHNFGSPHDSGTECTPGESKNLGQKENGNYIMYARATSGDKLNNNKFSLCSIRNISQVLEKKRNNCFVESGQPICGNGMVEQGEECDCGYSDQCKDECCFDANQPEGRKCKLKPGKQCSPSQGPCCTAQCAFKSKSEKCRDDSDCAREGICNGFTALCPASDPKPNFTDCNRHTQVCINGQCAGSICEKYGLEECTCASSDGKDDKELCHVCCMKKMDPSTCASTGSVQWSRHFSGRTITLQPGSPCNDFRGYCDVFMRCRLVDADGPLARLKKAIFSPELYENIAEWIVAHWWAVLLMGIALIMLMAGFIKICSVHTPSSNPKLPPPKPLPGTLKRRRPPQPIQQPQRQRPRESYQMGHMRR
# [2] = target: 72 kDa type IV collagenase (Homo sapiens, UniProt P08253); assay: Binding affinity to MMP2
# [3] = target: Matrix metalloproteinase-9 (Homo sapiens, UniProt P14780); assay: Binding affinity to MMP9
# [4] = target: T1, Disintegrin and metalloproteinase domain-containing protein 10; assay: (§1) Inhibition of HER2 sheddase in BT474 cells by extracellular domain shedding assay; format: cell-based, BT-474
# Interstitial collagenase = target: T2, Interstitial collagenase (Homo sapiens, UniProt P03956); assay: Binding affinity to MMP1
# T2 sequence (P03956 whole entry): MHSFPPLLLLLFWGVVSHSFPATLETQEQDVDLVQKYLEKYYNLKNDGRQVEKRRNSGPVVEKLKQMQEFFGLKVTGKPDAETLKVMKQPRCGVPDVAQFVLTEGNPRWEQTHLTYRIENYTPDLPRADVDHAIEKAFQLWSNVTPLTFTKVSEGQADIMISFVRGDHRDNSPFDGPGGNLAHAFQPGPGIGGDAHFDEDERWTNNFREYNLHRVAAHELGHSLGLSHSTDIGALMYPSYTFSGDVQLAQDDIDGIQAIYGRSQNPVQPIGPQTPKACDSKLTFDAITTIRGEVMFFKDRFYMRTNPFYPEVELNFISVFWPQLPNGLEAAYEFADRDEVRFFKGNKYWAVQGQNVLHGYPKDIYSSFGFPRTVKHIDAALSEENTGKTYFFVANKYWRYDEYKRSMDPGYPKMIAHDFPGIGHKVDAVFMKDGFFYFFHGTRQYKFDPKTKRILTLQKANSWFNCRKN
# Stromelysin-1 = Stromelysin-1 (Homo sapiens, UniProt P08254); assay: Binding affinity to MMP3
# [5] = Selectivity for ADAM10 over MMP3
# [6] = Selectivity for ADAM10 over MMP2
# [7] = Selectivity for ADAM10 over MMP9
# [8] = target: T3, Disintegrin and metalloproteinase domain-containing protein 10 (Homo sapiens) (UniProt O14672); assay: as §1; format: cell-based; conditions: BT-474
# T3 sequence (whole entry): T1 sequence (O14672 whole entry)
# [9] = Cmax in mouse at 10 mg/kg, po; format: ADME, organism-based; set-up: dose 10 mg/kg, route oral; conditions: in vivo
# [10] = Selectivity for ADAM10 over MMP1
# Plasma = assay: Protein binding in human plasma assessed as unbound fraction; format: ADME, cell-free
# [11] = AUC (0 to 24 hrs) in mouse at 10 mg/kg, po; format: ADME, organism-based; set-up: time < 24 hr, dose 10 mg/kg, route oral; conditions: plasma
# [12] = Half life in mouse; format: ADME, organism-based; conditions: in vivo
# Sequence of 72 kDa type IV collagenase (P08253 whole entry): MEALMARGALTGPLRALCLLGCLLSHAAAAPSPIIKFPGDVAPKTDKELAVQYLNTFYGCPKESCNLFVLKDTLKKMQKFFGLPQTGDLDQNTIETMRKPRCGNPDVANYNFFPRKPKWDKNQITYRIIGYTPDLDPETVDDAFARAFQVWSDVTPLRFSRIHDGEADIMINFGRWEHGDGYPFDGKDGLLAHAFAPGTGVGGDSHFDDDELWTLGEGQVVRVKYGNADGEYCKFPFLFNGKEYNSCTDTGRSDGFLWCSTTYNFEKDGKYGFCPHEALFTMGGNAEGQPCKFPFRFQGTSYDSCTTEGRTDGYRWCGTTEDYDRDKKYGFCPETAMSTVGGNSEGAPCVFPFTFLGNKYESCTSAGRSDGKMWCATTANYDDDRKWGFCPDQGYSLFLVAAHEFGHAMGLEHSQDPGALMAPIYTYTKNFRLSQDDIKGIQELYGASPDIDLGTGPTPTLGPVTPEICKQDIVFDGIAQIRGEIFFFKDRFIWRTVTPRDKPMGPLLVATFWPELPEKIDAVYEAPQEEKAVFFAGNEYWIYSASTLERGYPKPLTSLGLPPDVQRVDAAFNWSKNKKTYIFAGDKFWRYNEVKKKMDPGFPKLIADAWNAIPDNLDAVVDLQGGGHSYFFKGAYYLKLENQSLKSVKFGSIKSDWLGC
# Sequence of Matrix metalloproteinase-9 (P14780 whole entry, the tested form may be a part): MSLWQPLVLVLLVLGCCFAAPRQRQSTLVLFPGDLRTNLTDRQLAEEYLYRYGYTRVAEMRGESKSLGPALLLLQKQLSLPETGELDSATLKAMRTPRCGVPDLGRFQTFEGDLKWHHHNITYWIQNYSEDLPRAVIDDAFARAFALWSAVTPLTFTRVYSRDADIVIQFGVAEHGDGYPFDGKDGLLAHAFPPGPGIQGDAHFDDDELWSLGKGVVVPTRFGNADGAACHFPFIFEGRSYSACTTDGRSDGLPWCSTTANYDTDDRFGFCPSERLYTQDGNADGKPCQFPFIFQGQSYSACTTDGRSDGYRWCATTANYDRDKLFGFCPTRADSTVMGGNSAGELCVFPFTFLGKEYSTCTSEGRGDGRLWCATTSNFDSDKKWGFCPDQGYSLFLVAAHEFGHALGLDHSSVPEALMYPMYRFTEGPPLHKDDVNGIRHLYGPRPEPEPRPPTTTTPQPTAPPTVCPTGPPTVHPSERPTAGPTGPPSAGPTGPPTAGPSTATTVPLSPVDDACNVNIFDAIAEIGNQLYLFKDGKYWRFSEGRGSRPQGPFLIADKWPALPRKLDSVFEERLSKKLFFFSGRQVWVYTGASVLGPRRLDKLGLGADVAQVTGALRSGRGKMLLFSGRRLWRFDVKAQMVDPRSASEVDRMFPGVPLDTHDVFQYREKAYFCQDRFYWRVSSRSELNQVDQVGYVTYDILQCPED
# Sequence of Stromelysin-1 (P08254 whole entry): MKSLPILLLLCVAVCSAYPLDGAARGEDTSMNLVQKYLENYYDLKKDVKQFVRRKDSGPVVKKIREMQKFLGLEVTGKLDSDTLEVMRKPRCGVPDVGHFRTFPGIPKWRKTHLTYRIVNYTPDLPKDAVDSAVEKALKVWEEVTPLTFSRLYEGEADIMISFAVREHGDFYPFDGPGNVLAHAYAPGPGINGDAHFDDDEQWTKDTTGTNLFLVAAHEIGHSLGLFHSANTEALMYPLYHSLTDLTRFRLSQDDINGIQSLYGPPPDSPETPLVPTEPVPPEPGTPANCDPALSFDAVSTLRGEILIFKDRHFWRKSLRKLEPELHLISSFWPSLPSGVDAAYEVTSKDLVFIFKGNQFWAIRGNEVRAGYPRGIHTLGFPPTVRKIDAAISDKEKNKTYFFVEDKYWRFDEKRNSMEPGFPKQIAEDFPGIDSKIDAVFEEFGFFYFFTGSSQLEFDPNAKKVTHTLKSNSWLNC
SMILES,IC50 [1] [nM],IC50 [2] [nM],IC50 [3] [nM],IC50 [4] [nM],IC50 (Interstitial collagenase) [nM],IC50 (Stromelysin-1) [nM],also measured
CCc1cccc(C2=CCN(C(=O)[C@H]3NCC4(CC4)C[C@@H]3C(=O)NO)CC2)c1,33,21,190,240,> 5000,–,–
CC(C)c1cccc(C2CCN(C(=O)[C@H]3NCC4(CC4)C[C@@H]3C(=O)NO)CC2)c1,16,1390,–,139,–,> 5000,–
Cc1cc(C)cc(C2=CCN(C(=O)[C@H]3NCC4(CC4)C[C@@H]3C(=O)NO)CC2)c1,85,433,> 5000,86,> 5000,> 5000,–
CC(C)COC(=O)N1CC2(CC2)C[C@H](C(=O)NO)[C@H]1C(=O)N1CC=C(c2ccccc2)CC1,19,35,451,150,> 5000,2600,–
Cc1cc(C2=CCN(C(=O)[C@H]3NCC4(CC4)C[C@@H]3C(=O)NO)CC2)cc(C)c1C#N,28,159,> 5000,129,> 5000,3500,–
CS(=O)(=O)N1CC2(CC2)C[C@H](C(=O)NO)[C@H]1C(=O)N1CCN(c2ccccc2)CC1,27,86,1500,45,> 5000,> 5000,–
CC(C)c1cccc(C2=CCN(C(=O)[C@H]3NCC4(CC4)C[C@@H]3C(=O)NO)CC2)c1,73,1100,2500,229,> 5000,5000,Ratio IC50 [5]: 2; Ratio IC50 [6]: > 15; Ratio IC50 [7]: 10
O=C(NO)[C@H]1CC2(CC2)CN[C@@H]1C(=O)N1CCC(c2ccccc2)CC1,–,–,–,137,–,–,–
CS(=O)(=O)N1CC2(CC2)C[C@H](C(=O)NO)[C@H]1C(=O)N1CC=C(c2ccccc2)CC1,51,53,677,93,> 5000,> 5000,–
CC(C)c1cc(C2=CCN(C(=O)[C@H]3NCC4(CC4)C[C@@H]3C(=O)NO)CC2)ccc1C#N,154,2500,–,902,–,–,–
O=C(NO)[C@H]1CC2(CC2)CN[C@@H]1C(=O)N1CC=C(c2cc(Cl)cc(Cl)c2)CC1,99,5000,–,–,–,–,Activity [8]: inactive
COC(=O)N1CC2(CC2)C[C@H](C(=O)NO)[C@H]1C(=O)N1CCC(c2ccccc2)CC1,19,472,–,169,–,–,–
O=C(NO)[C@H]1CC2(CC2)CN[C@@H]1C(=O)N1CC=C(c2cccc(C3CC3)c2)CC1,48,24,–,–,–,–,–
O=C(NO)[C@H]1CC2(CC2)CN[C@@H]1C(=O)N1CC=C(c2ccccc2)C1,–,–,–,13,–,–,–
Cc1cccc(N2CCN(C(=O)[C@H]3NCC4(CC4)C[C@@H]3C(=O)NO)CC2)c1,187,63,1270,184,> 5000,> 1000,–
O=C(NO)[C@H]1CC2(CC2)CN(C(=O)OCc2ccccc2)[C@@H]1C(=O)N1CC=C(c2ccccc2)CC1,34,37,309,431,> 5000,1670,–
CC(=O)N1CC2(CC2)C[C@H](C(=O)NO)[C@H]1C(=O)N1CC=C(c2ccccc2)CC1,40,50,160,72,> 5000,> 5000,–
O=C(NO)[C@H]1CC2(CC2)CN[C@@H]1C(=O)N1CCC(c2ccccc2)C1 (some centres undefined),–,960,> 3000,–,> 5000,> 3000,–
COC(=O)N1CC2(CC2)C[C@H](C(=O)NO)[C@H]1C(=O)N1CCC(c2ccccc2)C1 (some centres undefined),81,> 5000,–,289,–,–,–
O=C(NO)[C@H]1CC2(CC2)CN(C(=O)OC2CCOCC2)[C@@H]1C(=O)N1CCN(c2ccccc2)CC1,37,106,2620,26,> 5000,4000,–
Cc1cccc(C2=CCN(C(=O)[C@H]3NCC4(CC4)C[C@@H]3C(=O)NO)CC2)c1,25,13,111,42,1890,359,–
O=C(NO)[C@H]1CC2(CC2)CN[C@@H]1C(=O)N1CCN(c2cccc(Cl)c2)CC1,14,32,–,42,–,–,–
COc1cccc(C2=CCN(C(=O)[C@H]3NCC4(CC4)C[C@@H]3C(=O)NO)CC2)c1,40,50,110,194,> 5000,–,–
COC(=O)N1CC2(CC2)C[C@H](C(=O)NO)[C@H]1C(=O)N1CC=C(c2ccccc2)C1,26,488,3050,34,> 5000,> 5000,Cmax [9]: 3000 nM; Ratio IC50 [5]: 11; Ratio IC50 [10]: 2; Ratio IC50 [6]: 37; PPB (Plasma): 34%; AUC(0-t) at 24 h [11]: 2.8 µM·h; half-life [12]: 1.8 h; Ratio IC50 [7]: 40
CC(C)c1cccc(N2CCN(C(=O)[C@H]3NCC4(CC4)C[C@@H]3C(=O)NO)CC2)c1,1100,> 5000,–,–,> 5000,–,Activity [8]: inactive
Cc1cccc(C2CCN(C(=O)[C@H]3NCC4(CC4)C[C@@H]3C(=O)NO)CC2)c1,194,391,604,689,> 5000,> 5000,–
O=C(NO)[C@H]1CC2(CC2)CN[C@@H]1C(=O)N1CC=C(c2cc(F)cc(F)c2)CC1,15,14,916,24,> 5000,> 5000,–
Cc1cc(N2CCN(C(=O)[C@H]3NCC4(CC4)C[C@@H]3C(=O)NO)CC2)ccc1C#N,38,< 5,–,594,–,–,–
